{
  "source": "patent US5795864A",
  "about": "(priority 1995, dated 1998)",
  "target": "OCT MVIIA (SNX-111) binding site (site 1) (Rattus norvegicus, UniProt Q02294)",
  "sequence (Q02294 whole entry, looked up)": "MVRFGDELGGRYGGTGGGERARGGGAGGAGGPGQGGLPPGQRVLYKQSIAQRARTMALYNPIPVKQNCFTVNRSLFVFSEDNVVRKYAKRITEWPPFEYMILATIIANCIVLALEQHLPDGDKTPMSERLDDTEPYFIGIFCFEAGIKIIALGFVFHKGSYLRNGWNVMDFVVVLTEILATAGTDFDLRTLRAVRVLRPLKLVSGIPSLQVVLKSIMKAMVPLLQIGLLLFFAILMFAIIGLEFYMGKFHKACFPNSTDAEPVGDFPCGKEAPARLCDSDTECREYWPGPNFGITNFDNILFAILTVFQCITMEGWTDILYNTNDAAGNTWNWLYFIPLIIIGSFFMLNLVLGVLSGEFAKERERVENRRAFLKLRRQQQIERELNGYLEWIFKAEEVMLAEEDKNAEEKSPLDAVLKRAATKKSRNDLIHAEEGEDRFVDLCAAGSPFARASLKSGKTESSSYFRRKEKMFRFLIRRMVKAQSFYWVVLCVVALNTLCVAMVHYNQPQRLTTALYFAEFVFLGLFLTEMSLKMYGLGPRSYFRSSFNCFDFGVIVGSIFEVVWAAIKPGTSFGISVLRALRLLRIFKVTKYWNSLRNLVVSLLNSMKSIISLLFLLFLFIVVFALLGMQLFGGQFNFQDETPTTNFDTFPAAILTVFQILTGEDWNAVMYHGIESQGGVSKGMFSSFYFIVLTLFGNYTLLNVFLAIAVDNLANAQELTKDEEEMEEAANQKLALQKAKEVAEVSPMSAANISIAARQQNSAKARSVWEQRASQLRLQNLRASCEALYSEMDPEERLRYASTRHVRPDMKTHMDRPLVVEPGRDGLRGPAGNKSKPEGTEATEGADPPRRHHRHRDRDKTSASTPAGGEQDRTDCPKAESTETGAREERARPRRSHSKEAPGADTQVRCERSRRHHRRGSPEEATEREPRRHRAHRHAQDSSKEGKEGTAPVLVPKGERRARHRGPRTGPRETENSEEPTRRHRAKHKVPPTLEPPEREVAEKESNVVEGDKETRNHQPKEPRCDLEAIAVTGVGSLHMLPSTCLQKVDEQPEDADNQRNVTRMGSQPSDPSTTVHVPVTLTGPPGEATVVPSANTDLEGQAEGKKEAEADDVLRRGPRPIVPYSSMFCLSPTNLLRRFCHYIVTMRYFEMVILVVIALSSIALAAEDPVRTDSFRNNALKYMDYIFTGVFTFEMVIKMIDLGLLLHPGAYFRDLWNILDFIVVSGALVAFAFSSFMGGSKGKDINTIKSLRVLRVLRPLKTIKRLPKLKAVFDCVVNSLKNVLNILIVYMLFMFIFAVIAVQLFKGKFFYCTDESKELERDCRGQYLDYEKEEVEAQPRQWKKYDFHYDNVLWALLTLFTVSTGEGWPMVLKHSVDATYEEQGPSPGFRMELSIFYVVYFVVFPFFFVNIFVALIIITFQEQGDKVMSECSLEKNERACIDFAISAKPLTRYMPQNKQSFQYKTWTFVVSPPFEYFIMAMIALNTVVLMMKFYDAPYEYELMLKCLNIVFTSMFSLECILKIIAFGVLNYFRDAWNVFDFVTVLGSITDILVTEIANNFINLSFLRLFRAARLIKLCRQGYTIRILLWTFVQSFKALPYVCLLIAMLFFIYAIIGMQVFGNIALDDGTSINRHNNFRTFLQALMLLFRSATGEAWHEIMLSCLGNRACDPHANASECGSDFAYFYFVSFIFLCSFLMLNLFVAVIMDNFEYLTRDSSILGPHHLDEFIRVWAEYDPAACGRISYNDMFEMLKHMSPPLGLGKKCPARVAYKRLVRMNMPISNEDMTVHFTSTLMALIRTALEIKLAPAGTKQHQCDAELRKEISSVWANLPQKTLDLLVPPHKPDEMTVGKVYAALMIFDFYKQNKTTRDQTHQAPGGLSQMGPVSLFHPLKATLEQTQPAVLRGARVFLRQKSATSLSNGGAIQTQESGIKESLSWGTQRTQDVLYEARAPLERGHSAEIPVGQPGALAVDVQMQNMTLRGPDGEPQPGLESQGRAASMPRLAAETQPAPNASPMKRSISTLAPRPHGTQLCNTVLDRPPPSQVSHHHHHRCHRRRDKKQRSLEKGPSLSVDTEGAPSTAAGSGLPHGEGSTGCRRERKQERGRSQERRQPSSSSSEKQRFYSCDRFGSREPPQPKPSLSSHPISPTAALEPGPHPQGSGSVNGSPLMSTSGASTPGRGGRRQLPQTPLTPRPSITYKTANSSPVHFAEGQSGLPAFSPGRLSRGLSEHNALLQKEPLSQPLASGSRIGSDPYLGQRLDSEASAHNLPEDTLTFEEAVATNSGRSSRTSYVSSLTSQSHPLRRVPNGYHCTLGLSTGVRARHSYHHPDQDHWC",
  "assay": "biochemical",
  "note": "Bridge positions count the residues as written; N and C are the ends. Square brackets hold non-standard residues; d marks the D form. Peptide text beside a SMILES is read from it. Hyp = O=C(O)[C@@H]1C[C@@H](O)CN1",
  "data": [
    {"smiles": "CC[C@H](C)[C@@H]1NC(=O)[C@H](CO)NC(=O)[C@H]([C@@H](C)O)NC(=O)[C@H](C(C)C)NC(=O)CNC(=O)[C@@H]2CSSC[C@@H]3NC(=O)[C@H](CCCNC(=N)N)NC(=O)CNC(=O)[C@H](CSSC[C@H](N)C(=O)N[C@@H](CCCNC(=N)N)C(=O)N[C@@H](CO)C(=O)N[C@@H](CO)C(=O)NCC(=O)N[C@@H](CO)C(=O)N4C[C@H](O)C[C@H]4C(=O)N2)NC(=O)[C@H](CSSC[C@@H](C(=O)N[C@H](C(N)=O)[C@@H](C)O)NC(=O)[C@H](CCCCN)NC(=O)CNC(=O)[C@H](CCCNC(=N)N)NC(=O)[C@H](Cc2ccc(O)cc2)NC3=O)NC1=O", "note": "[SNX-157] (H-CRSSGS[Hyp]CGVTSICCGRCYRGKCT-NH2; disulfide 1-15, 8-18, 14-23)", "values": [
      {"measurement": "IC50", "value": 1.46, "unit": "µM"}
    ]}
  ]
}
